Results as given in paper PMC5460289, “Identification of New Shikonin Derivatives as Antitumor Agents Targeting STAT3 SH2 Domain” (Scientific Reports, 2017).

Columns and labels:
Format in all cases: cell-based, human
[1] = tested on: Bcl-2, Bcl-xL, survivin and cyclin D1 in MDA-MB-231 cells; assay: Western blot of STAT3 downstream target genes expression; conditions: MDA-MB-231, 24 h
Protocol: Figure 7 MDA-MB-231 cells were treated with indicated concentrations of PMM-172 or Stattic for 24 h, the expression levels of STAT3 in cytoplasmic and nuclear extracts were examined and relative expression levels were analyzed by Image J software. β-actin and Lamin B1 served as markers of cytoplasmic and nuclear extractions, respectively. […] (C) MCF-10A cells were treated with the indicated concentrations of PMM-172 for 24 h. PMM-172 had no effect on the level of the pSTAT3 level in MCF-10A cells. […] Data were shown as mean ± SD from three independent experiments, **P < 0.01. Cropped blots/gels were used in the figure and the gels had been run under the same experimental conditions; the full-length blots/gels are presented in Supplementary Figure S3.
STAT3 target genes are vital to the dysfunctional biology processes induced by the aberrantly activated STAT3. Therefore, we investigated whether PMM-172 suppresses the expression of STAT3-regulated genes related to cell survival, proliferation and apoptosis in MDA-MB-231 cells.
(§1) Cells were rinsed twice with cold PBS and then lysed with RIPA buffer containing a protease inhibitor mixture at 1:100 dilution on ice for 30 min. Insoluble components of cell lysates were removed by centrifugation (4 °C, 12000 rmp, 10 min), and protein concentrations were measured using a Pierce BCA protein assay kit. […]

STAT1 = assay: Western blot of STAT1 phosphorylation and expression; conditions: MDA-MB-231
Protocol: Figure 6 (A) PMM-172 suppressed constitutive pSTAT3 (Tyr705) in a dose-dependent manner. (B) PMM-172 suppressed constitutive pSTAT3 (Tyr705) in a time-dependent manner. (C) MDA-MB-231 cells were treated with IL-6 (20 ng/mL) or vehicle for 30 min, with or without pretreatment with PMM-172 (2 μM) for 24 h. PMM-172 inhibited IL-6 induced phosphorylation of STAT3. (D) Stattic suppressed constitutive pSTAT3 (Tyr705) in a dose-dependent manner. (E) Stattic suppressed constitutive pSTAT3 (Tyr705) in a time-dependent manner. (F) Tyrosine phosphorylation of two STAT family proteins STAT1 and STAT5 were detected with specific antibodies. […] Data were shown as mean ± SD of three independent experiments. *P < 0.05, **P < 0.01. Cropped blots/gels were used in the figure and the gels had been run under the same experimental conditions; the full-length blots/gels are presented in Supplementary Figure S2.
Subsequently, we evaluated the phosphorylation level of other STAT family proteins including STAT1 and STAT5.
as §1

MDA-MB-231 = assay: MTT anti-proliferation assay; conditions: Homo sapiens, MDA-MB-231, 24 h treatment
Protocol: (§2) Initial experiments were performed for evaluation of growth inhibition by the new compounds against six human breast cancer cell lines, including MCF-7 (ER+/PR+, HER-2-), BT474 (ER+/PR+, HER-2+), SKBR-3 (ER-/PR-/HER-2+), MDA-MB-436 (ER-/PR-/HER-2-), MDA-MB-231 (ER-/PR-/HER-2-), MDA-MB-468 (ER-/PR-/HER-2-) and non-tumorigenic MCF-10A cells. After 24 h treatment by the obtained compounds, the inhibition was assessed and the IC50 was summarized. […] Subsequently, the inhibition of STAT3 activation by PMM-172 and Stattic was evaluated using a dual-luciferase assay.
(§3) The anti-proliferative activities of the prepared compounds against MCF-7 (ER+/PR+, HER-2-), BT474 (ER+/PR+, HER-2+), SKBR-3 (ER-/PR-/HER-2+), MDA-MB-436 (ER-/PR-/HER-2-), MDA-MB-231 (ER-/PR-/HER-2-), MDA-MB-468 (ER-/PR-/HER-2-) and non-tumorigenic MCF-10A cell lines were evaluated using a standard (MTT)-based colorimetric assay with some modification. Cell lines were grown to log phase in DMEM supplemented with 10% fetal bovine serum. Cell suspensions were prepared and 100 μL/well dispensed into 96-well plates giving 10^4 cells/well. The subsequent incubation was permitted at 37 °C, 5% CO2 atmosphere for 24 h to allow the cells to reattach. Subsequently, cells were treated with the target compounds at increasing concentrations in the presence of 10% FBS for 24 h. Then, cell viability was assessed by the conventional 3-(4, 5-dimethylthiazol-2-yl)-2, 5-diphenyltetrazolium bromide (MTT) reduction assay and carried out strictly according to the manufacturer instructions. The absorbance (OD570) was read on an ELISA reader (Tecan, Austria). In all experiments, three replicate wells were used for each drug concentration. Each assay was carried out for at least three times.

MCF-7 = assay: MTT anti-proliferation assay; conditions: Homo sapiens, MCF7, 24 h treatment
Protocol: as §2, §3

SKBR-3 = assay: MTT anti-proliferation assay; conditions: Homo sapiens, SK-BR-3, 24 h treatment
Protocol: as §2, §3

MDA-MB-436 = assay: MTT anti-proliferation assay; conditions: Homo sapiens, MDA-MB-436, 24 h treatment
Protocol: as §2, §3

MDA-MB-468 = assay: MTT anti-proliferation assay; conditions: Homo sapiens, MDA-MB-468, 24 h treatment
Protocol: as §2, §3

BT-474 = assay: MTT anti-proliferation assay; conditions: Homo sapiens, BT-474, 24 h treatment
Protocol: as §2, §3

Question: Which results are given for `COc1cc(OC)cc(-c2nnc(SCC(=O)O[C@H](CC=C(C)C)C3=CC(=O)c4c(O)ccc(O)c4C3=O)o2)c1` [PMM-172, (R)-1-(5,8-dihydroxy-1,4-dioxo-1,4-dihydronaphthalen-2-yl)-4-methylpent-3-en-1-yl 2-((5-(3,5-dimethoxyphenyl)-1,3,4-oxadiazol-2-yl)thio)acetate]?
Answer: expression of STAT3 target genes Bcl-2, Bcl-xL, survivin and cyclin D1 [1]: down-regulated the expression of Bcl-2, Bcl-xL, survivin and cyclin D1 in a dose-dependent manner; phosphorylation and expression of STAT1 (STAT1): inhibited neither the phosphorylation nor expression; IC50 (MDA-MB-231): 1.98 ± 0.49 µM; IC50 (MCF-7): 4.87 ± 0.55 µM; IC50 (SKBR-3): 3.14 ± 0.46 µM; IC50 (MDA-MB-436): 3.07 ± 0.47 µM; IC50 (MDA-MB-468): 3.24 ± 0.27 µM; IC50 (BT-474): 5.26 ± 0.66 µM
